Entries after “also recorded” stand apart in the source; their conditions may differ. Where two headings read alike, the source gives them in different places. A value given as a limit tells only on which side of the number the result lay.

The values that follow come from patent publication US9131648B2, “Genes encoding chavicol/eugenol synthase from the creosote bush Larrea tridentata” (Washington State University, priority 2006, dated 2015).

For one data set, the target named is T1, PLR_Tp1 (Thuja plicata, UniProt Q9LD14).
T1 sequence (Q9LD14 1-313): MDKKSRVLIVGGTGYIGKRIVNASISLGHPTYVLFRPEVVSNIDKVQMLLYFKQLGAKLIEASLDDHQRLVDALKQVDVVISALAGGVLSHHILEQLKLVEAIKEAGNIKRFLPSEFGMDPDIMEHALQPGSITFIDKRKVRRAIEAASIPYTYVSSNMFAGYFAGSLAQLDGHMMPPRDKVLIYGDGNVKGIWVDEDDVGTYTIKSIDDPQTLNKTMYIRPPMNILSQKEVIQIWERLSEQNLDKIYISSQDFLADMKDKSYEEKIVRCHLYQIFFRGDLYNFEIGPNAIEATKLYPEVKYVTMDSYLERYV
As to conditions: Kim et al., manuscript in preparation (34), cited from earlier work.

For data set [1], the target named is T2, LtPLRh1 (LtCES1) (Larrea tridentata, UniProt V5NR15). The experiment in a line: In vitro test of LtPLRh1 with PLR, PCBER and IFR substrates. The class given is biochemical.
Data set [2] deals with T2, LtPLRh1 (LtCES1). The experiment in a line: LtPLRh1 (LtCES1) chavicol/eugenol synthase assays, kinetic parameters for monolignol ester substrates. The class given is biochemical. As to conditions: for Km values / Vmax values: PLR homologue in the creosote bush; for Vmax / kcat: Table 2, LtPLRh1 apparent. The protocol:
(§1) Enzymatic assays. All assays were performed at 30° C. in 250 μl of the corresponding buffered solutions (at 100 mM buffer concentration) containing 0.5 μg […]1) Rh1 and 1.0 mM NADPH, and were terminated by addition of 25 μl glacial acetic acid and freezing. […] Assays were carried out for 1 to 120 min; controls included both boiled enzyme extracts and omission of substrates. Kinetic parameters (Km and Vmax): Three sets of triplicate assays were carried out for 5 min in Bis-Tris propane buffer at pH 7.55, and contained different concentrations of p-coumaryl acetate (48), p-coumaryl coumarate (50) or coniferyl acetate (49) (3.2 μM-1 mM).

The target in the next data set is T3, ObEGS1 (Ocimum basilicum, UniProt Q15GI4).
T3 sequence (Q15GI4 1-314): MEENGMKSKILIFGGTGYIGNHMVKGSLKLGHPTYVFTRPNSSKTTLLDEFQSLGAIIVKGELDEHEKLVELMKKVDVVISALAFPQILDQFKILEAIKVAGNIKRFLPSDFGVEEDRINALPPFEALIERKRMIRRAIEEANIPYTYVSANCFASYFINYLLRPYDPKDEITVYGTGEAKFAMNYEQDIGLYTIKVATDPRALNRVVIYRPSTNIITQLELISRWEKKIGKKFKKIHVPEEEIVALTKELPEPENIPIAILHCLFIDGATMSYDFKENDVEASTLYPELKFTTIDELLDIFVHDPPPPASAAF
Particulars: cited from earlier work; for Vmax / kcat: ObEGS1.

A further data set deals with T4, PhIGS1 (Petunia hybrida, UniProt Q15GI3).
T4 sequence (Q15GI3 1-323): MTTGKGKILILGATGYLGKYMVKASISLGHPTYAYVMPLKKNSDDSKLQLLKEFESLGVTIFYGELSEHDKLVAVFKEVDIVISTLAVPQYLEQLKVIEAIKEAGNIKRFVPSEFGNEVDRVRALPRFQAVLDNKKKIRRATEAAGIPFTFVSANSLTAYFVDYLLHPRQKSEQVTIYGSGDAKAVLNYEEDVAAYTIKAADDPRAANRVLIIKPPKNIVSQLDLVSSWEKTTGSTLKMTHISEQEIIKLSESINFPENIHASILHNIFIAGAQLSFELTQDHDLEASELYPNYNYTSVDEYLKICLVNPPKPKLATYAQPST
As to conditions: cited from earlier work; for Vmax / kcat: PhIGS1.

The test system of data set [3] is basil CS/ES and petunia IES. Particulars: range over basil CS/ES and petunia IES, cited from earlier work.
Substrate in data set [4]: CC(=O)OC/C=C/c1ccc(O)cc1
The experiment in a line: LtPLRh1 (LtCES1) chavicol/eugenol synthase assays, kinetic parameters for monolignol ester substrates. Type of data set: biochemical, Larrea tridentata. Particulars: other: Table 1, Bis-Tris propane pH 7.55, 30° C., 1.0 mM NADPH, apparent values. The protocol: as §1

Substrate in data set [5]: COc1cc(/C=C/COC(C)=O)ccc1O
The description is as above. Type of data set: biochemical, Larrea tridentata. Particulars: other: Table 1, Bis-Tris propane pH 7.55, 30° C., 1.0 mM NADPH, apparent values. The protocol: as §1

Substrate in data set [6]: O=C(/C=C/c1ccc(O)cc1)OC/C=C/c1ccc(O)cc1
The description is as above. Type of data set: biochemical, Larrea tridentata. Particulars: other: Table 1, Bis-Tris propane pH 7.55, 30° C., 1.0 mM NADPH, apparent values. The protocol:
as §1

Data set [7] in a line: Characterisation of recombinant LtPLRh1: pH optimum and efficiency versus homologues. As to conditions: from previously reported kinetic parameters (26). The class given is biochemical, Larrea tridentata. The protocol:
Enzymatic assays. All assays were performed at 30° C. in 250 μl of the corresponding buffered solutions (at 100 mM buffer concentration) containing 0.5 μg LtPL LtPLRh1 (LtCES1) Rh1 and 1.0 mM NADPH, and were terminated by addition of 25 μl glacial acetic acid and freezing. Chavicol/eugenol synthase activity assays were individually performed in Bis-Tris propane buffer (pH 7.55) containing 0.4 mM p-coumaryl coumarate (50), p-coumaryl acetate (48) or coniferyl acetate (49). Assays were carried out for 1 to 120 min; controls included both boiled enzyme extracts and omission of substrates.
Kinetic parameters (Km and Vmax): Three sets of triplicate assays were carried out for 5 min in Bis-Tris propane buffer at pH 7.55, and contained different concentrations of p-coumaryl acetate (48), p-coumaryl coumarate (50) or coniferyl acetate (49) (3.2 μM-1 mM).

Consider `c1cc2c(cc1[C@H]1OC[C@H]3[C@@H]1CO[C@@H]3c1ccc3c(c1)OCO3)OCO2` [sesamin (71), sesamin], for which the “PLR-catalyzed reduction (serves as substrate)” value (from here on “PLR-catalyzed reduction”) at PLR_Tp1 is given as “fails to reduce; also recorded: does not undergo PLR-catalyzed reduction”.

With `COc1cc([C@H]2OC[C@@H]3C(c4cc(OC)c(O)c(OC)c4)OC[C@H]23)ccc1O` (some centres unmarked) [medioresinol (69), medioresinol], the “PLR-catalyzed reduction” value at PLR_Tp1 is “uses several p-hydroxylated phenylpropanoid substrates”; on PLR_Tp1 (listed as Medioresinol (69)) it was “additional PLR substrates”.

As for `O=c1c(-c2ccc(O)cc2)coc2cc(O)cc(O)c12` [genistein (73), genistein], at LtPLRh1 (LtCES1) [1], the “activity of LtPLRh1 towards the compound as substrate” value (“activity … as substrate” for short) is listed as “at best marginal activity; also recorded: do not serve as substrates”.

With `COc1cc(C2Oc3c(OC)cc(/C=C/CO)cc3C2CO)ccc1O` (centres unmarked) [dehydrodiconiferyl alcohol (56), dehydrodiconiferyl alcohol], the “activity … as substrate” value at LtPLRh1 (LtCES1) [1] was “at best marginal activity”.

Consider `CC(=O)OC/C=C/c1ccc(O)cc1` [p-coumaryl acetate (48), p-coumaryl acetate], for which, on LtPLRh1 (LtCES1) [2], the Km values entry is recorded as “a few hundred”; the Vmax values entry is recorded as “a few hundred”; the Vmax stood at 200 pkat/μg; the turnover number (kcat) (in general, the number of substrate molecules converted per active site and unit of time at saturation) came to 6.80 s⁻¹.

In the case of `COc1cc([C@H]2OC[C@H]3[C@@H]2CO[C@@H]3c2cc(OC)c(O)c(OC)c2)cc(OC)c1O` [syringaresinol (70), syringaresinol], on PLR_Tp1, the “PLR-catalyzed reduction” value is given as “uses several p-hydroxylated phenylpropanoid substrates; also recorded: additional PLR substrates”.

For `COc1ccc(-c2coc3cc(O)cc(O)c3c2=O)cc1` [biochanin A (74), biochanin A], the “activity … as substrate” value on LtPLRh1 (LtCES1) [1] is “at best marginal activity; also recorded: do not serve as substrates”.

Consider `O=C(/C=C/c1ccc(O)cc1)OC/C=C/c1ccc(O)cc1` [p-coumaryl coumarate (50), p-coumaryl coumarate], for which, at LtPLRh1 (LtCES1) [2], the Km values result is listed as “a few hundred”, the Vmax values entry is “a few hundred”, the Vmax is 75 pkat/μg and the kcat was found to be 2.55 s⁻¹.

As for `C[C@@H]1[C@H](C)[C@@H](c2ccc(O)cc2)O[C@@H]1c1ccc(O)cc1` [larreatricin (62), larreatricin], the “activity … as substrate” value at LtPLRh1 (LtCES1) [1] is recorded as “at best marginal activity”.

For the molecule `C/C=C/c1cc(OC)c2c(c1)[C@H](C)[C@@H](c1ccc(O)c(OC)c1)O2` [licarin A (64), licarin A], the “activity … as substrate” value on LtPLRh1 (LtCES1) [1] is recorded as “at best marginal activity”.

`COc1cc(/C=C/COC(C)=O)ccc1O` [coniferyl acetate (49), coniferyl acetate]: on LtPLRh1 (LtCES1) [2], the “efficiency of reduction by LtPLRh1 relative to reported homologues in basil and petunia” value is listed as more than 100 fold. In addition, the Km values result on LtPLRh1 (LtCES1) [2] is “a few hundred”. For the same molecule, at LtPLRh1 (LtCES1) [2], the Vmax values result is on record as “a few hundred”. The Vmax is on record as 190 pkat/μg on LtPLRh1 (LtCES1) [2]; 20 pkat μg^−1 prot on ObEGS1 (Table 1); 20 pkat/μg on ObEGS1 (Table 2); 7 pkat μg^−1 prot on PhIGS1 (Table 1); 7 pkat/μg on PhIGS1 (Table 2); 7-20 pkat μg^−1 protein in [3]. Besides, the turnover number (kcat) is 6.46 s⁻¹ at LtPLRh1 (LtCES1) [2]; 0.7 s⁻¹ on ObEGS1 (Table 1); 0.7 s⁻¹ on ObEGS1 (Table 2); 0.3 s⁻¹ at PhIGS1 (Table 1); 0.3 s⁻¹ on PhIGS1 (Table 2). Further, the Michaelis-Menten constant (Km) (commonly the substrate concentration at which the rate is half of its maximum) at ObEGS1 (Table 1, ObEGS1, Koeduka et al. 2006) is 5100 µM; on ObEGS1 (Table 2, ObEGS1, as reported in (26)), 5100 µM; on PhIGS1 (Table 1, PhIGS1, Koeduka et al. 2006), 1600 µM; on PhIGS1 (Table 2, PhIGS1, as reported in (26)), 1600 µM; in data set [3] (read-out: substrate affinities (Km)) it was 1600 to 5100 µM.

With pinoresinol [pinoresinol (54)], the “activity … as substrate” value at LtPLRh1 (LtCES1) [1] was “at best marginal activity”. In addition, the “PLR-catalyzed reduction” value on PLR_Tp1 was “uses several p-hydroxylated phenylpropanoid substrates”.

In the case of `COc1cc([C@H]2O[C@@H](c3ccc(O)c(OC)c3)[C@H](C)[C@@H]2C)ccc1O` [nectandrin B (72), nectandrin B], the “activity … as substrate” value on LtPLRh1 (LtCES1) [1] is “at best marginal activity; also recorded: do not serve as substrates”.

B1: LtPLRh1 (LtCES1) (Larrea tridentata) (protein)
chain: MAQKSKILIIGGTGYIGKFVVEASAKAGRPTFALVRESTVSDPVKGKLIANFKNLGVNILHGDLNDHESLVKAIKKVDVVISTVGNFQIADQVKIIAAIKAAGNVKRFFPSEFGNDVDRTHAVEPAKSTFEMKAQLRRTIEAEGIPYTYVSSNFFAGYFLPVLGQVGVTAPPRDKVTILGDGNQKAVFNKEDDIGTYTIRAADDPRTLNKILYIRPPRNTYSMNELVALWEKKIGKTLEKTYVPEEQLLKNIQEAEIPWNVVLAINHSVFVKGDHTNFAIKPSFGVEASELYPDVKYTTVEEYLSQFV
B1: in data set [4], the Km amounted to 350 µM, the Vmax was 12 µmol/min/mg, the turnover number (kcat) was found to be 6.8 s⁻¹ and the kcat/Km (commonly the turnover number divided by the Michaelis constant) was 19500 M⁻¹ s⁻¹. For the same molecule, in data set [5], the Michaelis-Menten constant (Km) was found to be 290 µM, the Vmax was determined as 11.4 µmol/min/mg, the kcat stood at 6.46 s⁻¹ and the kcat/Km turned out to be 22000 M⁻¹ s⁻¹. Moreover, in data set [6], the Km came to 210 µM, the Vmax came to 4.5 µmol/min/mg, the turnover number (kcat) amounted to 2.55 s⁻¹ and the specificity constant (kcat/Km) was found to be 12000 M⁻¹ s⁻¹.

B2: LtPLRh1: pinoresinol-lariciresinol reductase homologue from Larrea tridentata, chavicol/eugenol synthase, SEQ ID NO:2, recombinant 34 kDa (protein)
chain: MAQKSKILIIGGTGYIGKFVVEASAKAGRPTFALVRESTVSDPVKGKLIANFKNLGVNILHGDLNDHESLVKAIKKVDVVISTVGNFQIADQVKIIAAIKAAGNVKRFFPSEFGNDVDRTHAVEPAKSTFEMKAQLRRTIEAEGIPYTYVSSNFFAGYFLPVLGQVGVTAPPRDKVTILGDGNQKAVFNKEDDIGTYTIRAADDPRTLNKILYIRPPRNTYSMNELVALWEKKIGKTLEKTYVPEEQLLKNIQEAEIPWNVVLAINHSVFVKGDHTNFAIKPSFGVEASELYPDVKYTTVEEYLSQFV
modifications: Larrea tridentate
Regarding B2, the results for the “efficiency/activity relative to the enzymes reported in basil and petunia” value in data set [7] and in data set [7] (listed as LtPLRh1 (LtCES1)) were more than 100 fold and “over 100 fold”, respectively.
